{"source": "patent US20140294849A1", "about": "“COMPOSITIONS AND USES” (GLAXOSMITHKLINE BIOLOGICALS SA, priority 2011, published 2014)", "key": {"[1]": {"test_system": "CD11b+ peripheral blood monocytes", "experiment": "Ex vivo uptake assay of Aβ1-42", "assay_type": "cell-based, C57BL/6 mice", "details": "Example 14; AS01B mouse full dose (5 ug per mouse) or CRX601 2 μg, i.m.", "procedure": "Preparation of cells: Peripheral blood was drawn from C57BL/6 mice via cardiac puncture with lithium-heparin as anticoagulant, 24-hours after injection of the adjuvants used herein. Red blood cell lysis was performed twice on pooled blood with Ammonium Chloride-based Buffer (Sigma, Steinheim, Germany) and cells were counted with the EasyCount™ System (Immunicon). […]\nFACS analysis: cells were harvested after incubation with fluorescent Aβ peptide with Trypsin/EDTA and cold PBS and washed three times. 500,000 cells were incubated in 96-well plate for 10 min. on ice in the presence of Rat anti-Mouse CD16/CD32 (clone 2.4G2—BD Fc Block™) and further stained for 30 min. with a combination of the following directly conjugated antibodies at their pre-determined optimal concentration: PE-Hamster anti-Mouse CD3 (clone 145-2C11), Rat anti-Mouse CD45R/B220 (clone RA3-6B2), Rat anti-Mouse Ly-6G (clone 1A8), Mouse anti-Mouse NK1.1 (clone PK136), APC-conjugated Rat anti-Mouse CD11b (clone M1/70), PE-Cy7-conjugated Hamster anti-Mouse CD11c (clone HL3), (all from BD PharMingen). […]\nSamples were acquired on a flow cytometer (BD FACSCanto II) and data analyzed with the FACSDiva software (BD Biosciences). […]"}, "[2]": {"test_system": "spatial learning and memory", "experiment": "T-water maze in APP/PS1 mice", "assay_type": "in vivo, APPSwe/PS1 mice", "procedure": "Five groups of APPSwe/PS1 mice received one a week for a period of 12 weeks the following treatment: • Gr1: APPSwe/PS1+NaCl 0.9% n(=20), i.p. injections • Gr4: APPSwe/PS1+CRX527 (20 μg/mouse, 130 μl, n=10), i.p. injections • Gr5: […] (50 μg/mouse, 130 μl, n=10), i.p. injections • Gr8 APPSwe/PS1+AS15 ( 1/10th of human dose, 50 μl, n=10), i.m. injections • Gr9: APPSwe/PS1+AS01B ( 1/10th of human dose, 50 μl, n=10), i.m. injections\nMice were tested during the “light on” phase of the day. Behavioral experimenter was blinded to the genetic and treatment status of animals. To assess hippocampal-dependent spatial learning and memory, mice were trained in the T-water maze task. In this paradigm, we evaluate the mouse's ability to remember the spatial location of submerged platform. The T-maze apparatus (length of stem, 64 cm; length of arms, 30 cm; width, 12 cm; height of walls, 16 cm) was made of clear fiberglass and filled with water (23±1° C.) at a height of 12 cm. A platform (11×11 cm) was placed at the end of the target arm and was submerged 1 cm below the surface. The acquisition phase allows to evaluate animals for left-right spatial learning. During the first two trials, platforms were placed on each arms of the maze to test the spontaneous turning preference of the mouse. After these two trials, the least chosen arm was reinforced by the escape platform. The mice were placed in the stem of the T-maze and choose to swim either left or right until they found the submerged platform and escape to it, to a maximum of 60 s. After reaching the platform, the mice remained on it for 20 s and then were immediately placed back in the maze. […] Repeated trials were presented on the same day up to a maximum of 48 trials. A rest period of at least 10-15 min intervened between each block of 10 trials. A mouse was considered to have learned the task when it made no errors in a block of five consecutive trials. The reversal learning phase was then conducted 48 h later. During this phase, the same protocol was repeated, except that the mice were trained to find the escape platform on the opposite side to that on which they had learned on acquisition phase. The number of trials to reach the criterion (five of five correct choices made on consecutive trials) was measured as well as the latency to find the escape platform."}}}
{"smiles": "CCCCCCCCCCC[C@H](CC(=O)N[C@H]1[C@H](OC[C@H](NC(=O)C[C@@H](CCCCCCCCCCC)OCCCCCCCCCC)C(=O)O)O[C@H](CO)[C@@H](OP(=O)(O)O)[C@@H]1OC(=O)C[C@@H](CCCCCCCCCCC)OCCCCCCCCCC)OCCCCCCCCCC", "note": "[CRX601]", "values": [{"measurement": "ex vivo uptake of Aβ42 by monocytes compared to PBS group", "setting": "[1]", "value": "higher amount of Aβ42"}, {"measurement": "behaviour as assessed by T water maze testing", "setting": "[2]; Example 21, twelve weekly injections, vs non treated mice", "value": "significant improvements in behaviour"}, {"measurement": "cognitive functions, T-water maze", "setting": "[2]; Example 22, i.m. 12x weekly, CRX601 2 μg, CRX601 2 ug in AS03, 3D MPL 5 ug, AS01B 1/10 human dose, vs PBS, unpaired t-tests", "value": "significant improvement of their cognitive functions"}]}
